Laboratory results as given in the Kinase Knowledgebase extract (Sharma et al. 2016).

molecular target: EGFR (human) (UniProt P00533)
Sequence (P00533 whole entry, looked up): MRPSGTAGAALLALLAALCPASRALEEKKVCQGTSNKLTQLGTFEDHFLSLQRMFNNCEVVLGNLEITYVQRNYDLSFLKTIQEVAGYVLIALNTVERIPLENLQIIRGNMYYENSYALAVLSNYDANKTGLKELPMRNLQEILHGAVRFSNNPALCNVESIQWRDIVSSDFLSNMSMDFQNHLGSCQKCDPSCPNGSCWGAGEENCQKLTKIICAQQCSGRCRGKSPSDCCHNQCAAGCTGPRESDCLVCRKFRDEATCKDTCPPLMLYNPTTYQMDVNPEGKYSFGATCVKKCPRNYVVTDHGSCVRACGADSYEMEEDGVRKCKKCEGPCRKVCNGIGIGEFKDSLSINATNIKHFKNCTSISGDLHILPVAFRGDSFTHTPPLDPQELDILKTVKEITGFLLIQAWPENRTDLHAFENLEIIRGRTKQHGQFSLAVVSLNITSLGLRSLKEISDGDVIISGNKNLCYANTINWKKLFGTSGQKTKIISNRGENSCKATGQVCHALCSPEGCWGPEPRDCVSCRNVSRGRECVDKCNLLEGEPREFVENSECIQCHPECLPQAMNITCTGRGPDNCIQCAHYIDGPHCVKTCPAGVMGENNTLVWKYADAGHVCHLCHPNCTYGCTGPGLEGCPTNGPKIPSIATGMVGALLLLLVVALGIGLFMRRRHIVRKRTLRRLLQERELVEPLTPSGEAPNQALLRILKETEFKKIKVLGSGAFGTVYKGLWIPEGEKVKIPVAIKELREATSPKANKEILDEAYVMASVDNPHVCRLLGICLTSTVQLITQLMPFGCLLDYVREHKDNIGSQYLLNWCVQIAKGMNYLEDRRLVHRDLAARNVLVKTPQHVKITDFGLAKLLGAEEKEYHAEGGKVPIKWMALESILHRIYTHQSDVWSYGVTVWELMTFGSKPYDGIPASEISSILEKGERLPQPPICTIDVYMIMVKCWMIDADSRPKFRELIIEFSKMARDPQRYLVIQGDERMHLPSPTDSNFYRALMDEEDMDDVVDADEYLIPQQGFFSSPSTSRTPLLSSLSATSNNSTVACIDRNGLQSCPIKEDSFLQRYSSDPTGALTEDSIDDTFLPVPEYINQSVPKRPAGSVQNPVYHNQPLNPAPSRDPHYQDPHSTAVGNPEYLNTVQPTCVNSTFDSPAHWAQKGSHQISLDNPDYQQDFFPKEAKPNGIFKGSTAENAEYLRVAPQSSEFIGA

Row | Structure (SMILES) | IC50
1 | CC(=O)N1CCN(c2ccc(Nc3nccc(-c4sc(C(C)C)nc4-c4cccc(NS(=O)(=O)c5cn(C)cn5)c4)n3)cn2)CC1 | < 100 nM
2 | CCNc1nc(-c2cccc(NS(=O)(=O)c3ccccc3)c2)c(-c2ccnc(Nc3ccc(OCCN4CCCC4)c(F)c3)n2)s1 | < 100 nM
3 | COc1cc(N2CCN(CCS(C)(=O)=O)CC2)c(C)cc1Nc1nccc(-c2sc(N)nc2-c2cccc(NS(=O)(=O)c3c(F)cccc3F)c2)n1 | 100 to 1000 nM
4 | CC(C)c1nc(-c2cccc(NS(=O)(=O)c3c(F)cccc3F)c2)c(-c2ccnc(Nc3ccc(N4CCCNCC4)nc3)n2)s1 | < 100 nM
5 | CC(C)c1nc(-c2ccc(F)c(NS(=O)(=O)c3c(F)cccc3F)c2)c(-c2ccnc(Nc3ccc(N4CCN(CCS(C)(=O)=O)CC4)c(F)c3)n2)s1 | 100 to 1000 nM
6 | Cc1cc(N2CCC(N3CCCCC3)CC2)ccc1Nc1nccc(-c2sc(C(C)C)nc2-c2cccc(NS(=O)(=O)c3c(F)cccc3F)c2)n1 | < 100 nM
7 | CC(C)c1nc(-c2cccc(NS(=O)(=O)c3c(F)cccc3F)c2)c(-c2ccnc(Nc3ccc(N4CCN(C(C)C)CC4)cc3O)n2)s1 | 100 to 1000 nM
8 | COc1cc(N2CCN(CCS(C)(=O)=O)CC2)c(C)cc1Nc1nccc(-c2sc(C(C)C)nc2-c2cccc(NS(=O)(=O)c3ccco3)c2)n1 | < 100 nM
9 | CN(C)c1nc(-c2ccc(F)c(NS(=O)(=O)c3c(F)cccc3F)c2)c(-c2ccnc(Nc3ccc(N4CCOCC4)nc3)n2)s1 | 100 to 1000 nM
10 | CC(C)c1nc(-c2cccc(NS(=O)(=O)c3c(F)cccc3F)c2)c(-c2ccnc(Nc3ccc(N4CCN(CCF)CC4)c(F)c3)n2)s1 | 100 to 1000 nM
11 | COc1cc(N2CCN(CCS(C)(=O)=O)CC2)c(C)cc1Nc1nccc(-c2scnc2-c2cccc(NS(=O)(=O)c3c(F)cccc3F)c2)n1 | < 100 nM
12 | COc1ccc(Nc2nccc(-c3sc(C(C)C)nc3-c3cccc(NS(=O)(=O)Cc4ccccc4)c3)n2)cc1N1CCN(CCS(C)(=O)=O)CC1 | < 100 nM
13 | Cc1ccc(-c2nc(C(C)C)sc2-c2ccnc(Nc3ccc(N4CCOCC4)nc3)n2)cc1NS(=O)(=O)c1c(F)cccc1F | 100 to 1000 nM
14 | CC(C)c1nc(-c2cccc(NS(=O)(=O)c3c(F)cccc3F)c2)c(-c2ccnc(Nc3ccc(N4CCOCC4)nc3)n2)s1 | 100 to 1000 nM
15 | Cc1cc(Nc2nccc(-c3sc(C(C)C)nc3-c3ccc(F)c(NS(=O)(=O)c4c(F)cccc4F)c3)n2)ccn1 | 100 to 1000 nM
16 | Nc1nc(-c2ccc(F)c(NS(=O)(=O)c3c(F)cccc3F)c2)c(-c2ccnc(Nc3ccc(N4CCOCC4)nc3)n2)s1 | 100 to 1000 nM
17 | CC(C)c1nc(-c2cccc(NS(=O)(=O)c3cccnc3)c2)c(-c2ccnc(Nc3ccc(N4CCOCC4)nc3)n2)s1 | 100 to 1000 nM
18 | COc1cc(N2CCN(CCS(C)(=O)=O)CC2)c(C)cc1Nc1nccc(-c2sc(CC(C)C)nc2-c2cccc(NS(=O)(=O)c3c(F)cccc3F)c2)n1 | < 100 nM
19 | COc1cc(N2CCN(CCS(C)(=O)=O)CC2)c(C)cc1Nc1nccc(-c2sc(C(C)C)nc2-c2cccc(NS(=O)(=O)c3c(F)cccc3F)c2)n1 | < 100 nM
20 | CCOc1ccc(Nc2nccc(-c3sc(C(C)C)nc3-c3ccc(F)c(NS(=O)(=O)c4c(F)cccc4F)c3)n2)cc1N1CCN(CCF)CC1 | < 100 nM
21 | COc1cc(N2CCN(CCS(C)(=O)=O)CC2)c(C)cc1Nc1nccc(-c2sc(C3CCOCC3)nc2-c2cccc(NS(=O)(=O)c3c(F)cccc3F)c2)n1 | < 100 nM
22 | CC(C)c1nc(-c2ccc(F)c(NS(=O)(=O)c3c(F)cccc3F)c2)c(-c2ccnc(Nc3ccc(N4CCN5CCOC[C@H]5C4)nc3)n2)s1 | 100 to 1000 nM
